Experimental data published in ChEMBL document CHEMBL3580659, “One-pot multicomponent synthesis of indole incorporated thiazolylcoumarins and their antibacterial, anticancer and DNA cleavage studies” (2015).

How the values were obtained:
Type in all cases: functional
[1] = system: K562; assay: Cytotoxicity against human K562 cells after 48 hrs by sulforhodamine B assay; conditions: K562, 48 h
[2] = system: RPMI-8226; assay: Cytotoxicity against human RPMI8226 cells assessed as cell growth level at 100 nM after 48 hrs by sulforhodamine B assay
[3] = system: SF-268; assay: Cytotoxicity against human SF268 cells assessed as cell growth level at 100 uM after 48 hrs by sulforhodamine B assay
[4] = system: UACC-257; assay: Cytotoxicity against human UACC257 cells assessed as cell growth level at 10 uM after 48 hrs by sulforhodamine B assay
[5] = system: 786-0; assay: Cytotoxicity against human 786-0 cells assessed as cell growth level at 100 nM after 48 hrs by sulforhodamine B assay
[6] = system: U-251; assay: Cytotoxicity against human U251 cells assessed as cell growth level at 1 uM after 48 hrs by sulforhodamine B assay
[7] = system: HT-29; assay: Cytotoxicity against human HT-29 cells assessed as cell growth level at 10 uM after 48 hrs by sulforhodamine B assay
[8] = system: T47D; assay: Cytotoxicity against human T47D cells assessed as cell growth level at 100 uM after 48 hrs by sulforhodamine B assay
[9] = system: KM12; assay: Cytotoxicity against human KM12 cells assessed as cell growth level at 10 nM after 48 hrs by sulforhodamine B assay
[10] = system: SW-620; assay: Cytotoxicity against human SW620 cells assessed as cell growth level at 100 nM after 48 hrs by sulforhodamine B assay
[11] = system: SN12C; assay: Cytotoxicity against human SN12C cells after 48 hrs by sulforhodamine B assay
[12] = system: T47D; assay: Cytotoxicity against human T47D cells assessed as cell growth level at 10 uM after 48 hrs by sulforhodamine B assay
[13] = system: BT-549; assay: Cytotoxicity against human BT549 cells assessed as cell growth level at 100 nM after 48 hrs by sulforhodamine B assay
[14] = system: U-251; assay: Cytotoxicity against human U251 cells assessed as cell growth level at 10 uM after 48 hrs by sulforhodamine B assay
[15] = system: A498; assay: Cytotoxicity against human A498 cells assessed as cell growth level at 10 nM after 48 hrs by sulforhodamine B assay
[16] = system: BT-549; assay: Cytotoxicity against human BT549 cells after 48 hrs by sulforhodamine B assay; conditions: BT-549, 48 h
[17] = system: NCI-H226; assay: Cytotoxicity against human NCI-H226 cells assessed as cell growth level at 100 nM after 48 hrs by sulforhodamine B assay
[18] = system: MOLT-4; assay: Cytotoxicity against human MOLT4 cells assessed as cell growth level at 1 uM after 48 hrs by sulforhodamine B assay
[19] = system: A498; assay: Cytotoxicity against human A498 cells assessed as cell growth level at 100 nM after 48 hrs by sulforhodamine B assay
[20] = Cytotoxicity against human NCI-ADR-RES cells assessed as cell growth level at 10 nM after 48 hrs by sulforhodamine B assay
[21] = system: RXF 393; assay: Cytotoxicity against human RXF393 cells assessed as cell growth level at 10 nM after 48 hrs by sulforhodamine B assay
[22] = system: SNB-19; assay: Cytotoxicity against human SNB19 cells assessed as cell growth level at 100 uM after 48 hrs by sulforhodamine B assay
[23] = system: NCI-H460; assay: Cytotoxicity against human NCI-H460 cells assessed as cell growth level at 10 uM after 48 hrs by sulforhodamine B assay
[24] = system: DU-145; assay: Cytotoxicity against human DU145 cells assessed as cell growth level at 1 uM after 48 hrs by sulforhodamine B assay
[25] = system: MDA-MB-435; assay: Cytotoxicity against human MDA-MB-435 cells assessed as cell growth level at 10 uM after 48 hrs by sulforhodamine B assay
[26] = system: LOX IMVI; assay: Cytotoxicity against human LOXIMVI cells assessed as cell growth level at 10 nM after 48 hrs by sulforhodamine B assay
[27] = system: MDA-MB-231; assay: Cytotoxicity against human MDA-MB-231/ATCC cells assessed as cell growth level at 100 nM after 48 hrs by sulforhodamine B assay
[28] = system: SK-MEL-2; assay: Cytotoxicity against human SK-MEL-2 cells assessed as cell growth level at 10 uM after 48 hrs by sulforhodamine B assay
[29] = system: LOX IMVI; assay: Cytotoxicity against human LOXIMVI cells assessed as cell growth level at 100 uM after 48 hrs by sulforhodamine B assay
[30] = system: OVCAR-8; assay: Cytotoxicity against human OVCAR8 cells assessed as cell growth level at 100 nM after 48 hrs by sulforhodamine B assay
[31] = system: Malme-3M; assay: Cytotoxicity against human MALME-3M cells assessed as cell growth level at 100 uM after 48 hrs by sulforhodamine B assay
[32] = system: HT-29; assay: Cytotoxicity against human HT-29 cells after 48 hrs by sulforhodamine B assay; conditions: HT-29, 48 h
[33] = system: HOP-62; assay: Cytotoxicity against human HOP62 cells after 48 hrs by sulforhodamine B assay; conditions: HOP-62, 48 h
[34] = system: KM12; assay: Cytotoxicity against human KM12 cells assessed as cell growth level at 10 uM after 48 hrs by sulforhodamine B assay
[35] = system: SF-539; assay: Cytotoxicity against human SF539 cells assessed as cell growth level at 1 uM after 48 hrs by sulforhodamine B assay
[36] = system: MDA-MB-231; assay: Cytotoxicity against human MDA-MB-231/ATCC cells assessed as cell growth level at 100 uM after 48 hrs by sulforhodamine B assay
[37] = system: CAKI-1; assay: Cytotoxicity against human CAKI-1 cells assessed as cell growth level at 10 nM after 48 hrs by sulforhodamine B assay
[38] = system: MDA-MB-468; assay: Cytotoxicity against human MDA-MB-468 cells after 48 hrs by sulforhodamine B assay; conditions: MDA-MB-468, 48 h
[39] = system: DU-145; assay: Cytotoxicity against human DU145 cells assessed as cell growth level at 100 nM after 48 hrs by sulforhodamine B assay
[40] = read-out: LC50 (the source's name)
[41] = read-out: pLC50 (the source's name) (converted)

Q: For O=c1oc2ccccc2cc1-c1csc(N/N=C/c2c[nH]c3ccccc23)n1, which GI50 ([1]; read-out: GI50) is on record?
A: 3.18 µM

Q: What about the LC50 ([1]; read-out: LC50) of the same compound?
A: > 100 µM

Q: What about the TGI ([1]; read-out: TGI) of the same compound?
A: 10.4 µM

Q: What about the GI50 ([1]; read-out: pGI50 (converted)) of the same compound?
A: 3.16 µM

Q: What about the LC50 ([1]; read-out: pLC50 (converted)) of the same compound?
A: > 100 µM

Q: What about the TGI ([1]; read-out: pTGI (converted)) of the same compound?
A: 10.5 µM

Q: And the Activity [2]?
A: 94%

Q: And the Activity [3]?
A: -21%

Q: What about the Activity [4] of the same compound?
A: 8.34%

Q: What about the Activity [5] of the same compound?
A: 82%

Q: What about the Activity [6] of the same compound?
A: 103%

Q: And the Activity [7]?
A: 32.14%

Q: What about the Activity [8] of the same compound?
A: -35%

Q: And the Activity [9]?
A: 99%

Q: What about the Activity [10] of the same compound?
A: 95%

Q: What about the GI50 ([11]; read-out: GI50) of the same compound?
A: 1080 nM

Q: And the CC50 [11, 40]?
A: > 100 µM

Q: And the TGI ([11]; read-out: TGI)?
A: 3.96 µM

Q: What about the GI50 ([11]; read-out: pGI50 (converted)) of the same compound?
A: 1070 nM

Q: What about the CC50 [11, 41] of the same compound?
A: > 100 µM

Q: What about the TGI ([11]; read-out: pTGI (converted)) of the same compound?
A: 3.98 µM

Q: What about the Activity [12] of the same compound?
A: 4.07%

Q: And the Activity [13]?
A: 88%

Q: And the Activity [14]?
A: -6.38%

Q: What about the Activity [15] of the same compound?
A: 95%

Q: What about the GI50 ([16]; read-out: GI50) of the same compound?
A: 1130 nM

Q: What about the CC50 [16, 40] of the same compound?
A: 5.22 µM

Q: What about the TGI ([16]; read-out: TGI) of the same compound?
A: 2430 nM

Q: What about the GI50 ([16]; read-out: pGI50 (converted)) of the same compound?
A: 1120 nM

Q: And the CC50 [16, 41]?
A: 5.25 µM

Q: What about the TGI ([16]; read-out: pTGI (converted)) of the same compound?
A: 2450 nM

Q: And the Activity [17]?
A: 104%

Q: What about the Activity [18] of the same compound?
A: 20%

Q: And the Activity [19]?
A: 96%

Q: And the Activity [20]?
A: 105%

Q: And the Activity [21]?
A: 98%

Q: And the Activity [22]?
A: -44%

Q: And the Activity [23]?
A: 5.79%

Q: And the Activity [24]?
A: 80%

Q: And the Activity [25]?
A: 22.44%

Q: What about the Activity [26] of the same compound?
A: 91%

Q: What about the Activity [27] of the same compound?
A: 97%

Q: What about the Activity [28] of the same compound?
A: -9.49%

Q: What about the Activity [29] of the same compound?
A: -45%

Q: What about the Activity [30] of the same compound?
A: 107%

Q: What about the Activity [31] of the same compound?
A: -67%

Q: What about the GI50 ([32]; read-out: GI50) of the same compound?
A: 2010 nM

Q: And the CC50 [32, 40]?
A: > 100 µM

Q: And the TGI ([32]; read-out: TGI)?
A: 5.55 µM

Q: And the GI50 ([32]; read-out: pGI50 (converted))?
A: 2000 nM

Q: And the CC50 [32, 41]?
A: > 100 µM

Q: What about the TGI ([32]; read-out: pTGI (converted)) of the same compound?
A: 5.5 µM

Q: And the GI50 ([33]; read-out: GI50)?
A: 3.73 µM

Q: What about the LC50 ([33]; read-out: LC50) of the same compound?
A: > 100 µM

Q: What about the TGI ([33]; read-out: TGI) of the same compound?
A: 20 µM

Q: What about the GI50 ([33]; read-out: pGI50 (converted)) of the same compound?
A: 3.72 µM

Q: What about the LC50 ([33]; read-out: pLC50 (converted)) of the same compound?
A: > 100 µM

Q: And the TGI ([33]; read-out: pTGI (converted))?
A: 20 µM

Q: What about the Activity [34] of the same compound?
A: -47.67%

Q: And the Activity [35]?
A: 87%

Q: What about the Activity [36] of the same compound?
A: -3%

Q: And the Activity [37]?
A: 95%

Q: What about the GI50 ([38]; read-out: GI50) of the same compound?
A: 1520 nM

Q: And the CC50 [38, 40]?
A: > 100 µM

Q: What about the TGI ([38]; read-out: TGI) of the same compound?
A: 3.92 µM

Q: And the GI50 ([38]; read-out: pGI50 (converted))?
A: 1510 nM

Q: What about the CC50 [38, 41] of the same compound?
A: > 100 µM

Q: And the TGI ([38]; read-out: pTGI (converted))?
A: 3.89 µM

Q: What about the Activity [39] of the same compound?
A: 92%
